In brackets after ≈: the same amount, converted by molar mass. Like-named read-outs stand apart in the source and are kept apart here.
Columns and labels:
Solubility in PBS = assay type: physicochemical
In short: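 Read-out is the HPLC peak area of the supernatant from ultracentrifuged PBS solution, scaled against a 50 μM peptide DMSO injection; value reported as [(PBS area)/(DMSO area)]*50 uM.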

CHI Log D procedure = assay type: physicochemical; settings: for CHI Log D: pH 7.4; for chromatographic logD: pH 7.4, CHI Log D
[1] = biological target: T1, full-length beta-Catenin (Uniprot ID P35222) (Homo sapiens, UniProt P35222); assay: Fluorescence polarization IC50 (beta-catenin / 5FAM-TCF4 10-53 competition); assay type: binding
T1 construct: 10 nM full-length beta-Catenin (Uniprot ID P35222)
T1 sequence (P35222 1-781): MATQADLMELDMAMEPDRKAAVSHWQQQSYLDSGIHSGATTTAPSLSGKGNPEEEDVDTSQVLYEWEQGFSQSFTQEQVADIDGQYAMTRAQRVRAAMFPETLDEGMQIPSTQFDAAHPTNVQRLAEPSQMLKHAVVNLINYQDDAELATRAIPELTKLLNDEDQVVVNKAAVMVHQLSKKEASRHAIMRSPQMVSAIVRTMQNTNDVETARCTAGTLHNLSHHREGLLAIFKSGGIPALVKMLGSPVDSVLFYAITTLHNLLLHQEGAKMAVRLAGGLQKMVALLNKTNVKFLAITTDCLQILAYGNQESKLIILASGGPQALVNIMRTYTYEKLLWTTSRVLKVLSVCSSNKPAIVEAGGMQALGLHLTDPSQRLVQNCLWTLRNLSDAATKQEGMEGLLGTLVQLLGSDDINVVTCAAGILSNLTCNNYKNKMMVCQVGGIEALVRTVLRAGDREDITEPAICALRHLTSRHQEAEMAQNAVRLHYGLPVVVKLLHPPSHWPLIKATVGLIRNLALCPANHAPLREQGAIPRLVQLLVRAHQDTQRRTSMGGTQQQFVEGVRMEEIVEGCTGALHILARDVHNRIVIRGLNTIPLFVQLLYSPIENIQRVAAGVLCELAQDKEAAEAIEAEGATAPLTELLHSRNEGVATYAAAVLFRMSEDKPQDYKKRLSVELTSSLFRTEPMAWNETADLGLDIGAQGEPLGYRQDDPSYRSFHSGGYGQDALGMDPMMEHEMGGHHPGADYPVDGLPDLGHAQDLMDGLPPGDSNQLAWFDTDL

[2] = fluorescence polarization, read-out: beta-Catenin FP IC50

SMILES | Solubility (Solubility in PBS) [µM] | CHI Log D (CHI Log D procedure) | IC50 [1, 2] [nM] | IC50 ([1]; read-out: FP EC50) [nM] | Solubility (Solubility in PBS; Solubility (uM)) [µM] | chromatographic logD (CHI Log D procedure) | IC50 ([1]; read-out: beta-Catenin FP IC50) [nM] | IC50 ([1]; fluorescence polarization, beta-catenin, read-out: FP EC50) [nM]
CC[C@H](C)[C@@H]1NC(=O)[C@H](CC(=O)O)NC(=O)[C@]2(CC=CCCCC3(CCCC=CCCCCCC[C@@](C)(C(=O)N[C@@H](Cc4ccccc4)C(=O)N[C@@H](Cc4csc5ccccc45)C(=O)N[C@@H](CCC(N)=O)C(N)=O)NC(=O)[C@H](CCC(N)=O)NC(=O)[C@H](Cc4ccccc4)NC(=O)[C@H](CO)NC(=O)[C@H](C)NC(=O)[C@H](CCC(=O)O)NC(=O)[C@H](CC(=O)O)NC3=O)NC1=O)CCCN2C(C)=O (stereo partly drawn) [I-661, Ac-PL3-Asp-Ile-B5-Asp-Glu-Ala-Ser-Phe-Gln-S8-Phe-BztA-Gln-NH2] | 45 (≈ 85.5 µg/mL) | 2.099 | 45 | 45 |  |  |  | 
CC(=O)N1CCC[C@]12CC=CCCCC1(CCCC=CCCCOC(=O)N3CC[C@@](C(=O)N[C@@H](Cc4ccsc4)C(=O)N[C@@H](Cc4csc5ccccc45)C(=O)N[C@@H](CCC(N)=O)C(=O)N[C@@H](CCCCNC(=O)c4cccc5ccccc45)C(N)=O)(C3)NC(=O)[C@H](CC(N)=O)NC(=O)[C@H](Cc3ccccc3)NC(=O)[C@H](C)NC(=O)[C@H](C)NC(=O)[C@H](CC(=O)O)NC(=O)[C@H](CC(=O)O)NC1=O)NC(=O)[C@H](CC(C)(C)C)NC(=O)[C@H](CC(=O)O)NC2=O (stereo partly drawn) [I-916, Ac-PL3-Asp-Npg-B5-Asp-Asp-Ala-Ala-Phe-Asn-PyrS2-3Thi-BztA-Gln-[1Napc]Lys-NH2] |  |  |  |  | 45 (≈ 99 µg/mL) | 2.33 | 28 | 
CC(=O)N1CCC[C@]12CC=CCCCC1(CCCC=CCCCOC(=O)N3CC[C@@](C(=O)N[C@@H](Cc4ccccc4Cl)C(=O)N[C@@H](Cc4csc5ccccc45)C(=O)N[C@@H](CCO)C(N)=O)(C3)NC(=O)[C@H](Cc3ccccc3)NC(=O)[C@H](Cc3ccccc3)NC(=O)[C@H](C)NC(=O)[C@H](C)NC(=O)[C@H](CN(CC(=O)O)CC(F)(F)F)NC(=O)[C@H](CC(=O)O)NC1=O)NC(=O)[C@H](CC(C)(C)C)NC(=O)[C@H](CC(=O)O)NC2=O (stereo partly drawn) [I-992, Ac-PL3-Asp-Npg-B5-Asp-TfeGA-Ala-Ala-Phe-Phe-PyrS2-2C1F-BztA-Hse-NH2] |  |  |  |  | 12 (≈ 24.8 µg/mL) | 2.56 | 59 | 
CCNC(=O)C[C@@H]1NC(=O)C2(CCCC=CCCCCCC[C@@](C)(C(=O)N[C@@H](Cc3ccccc3)C(=O)N[C@@H](Cc3csc4ccccc34)C(=O)N[C@@H](CCC(N)=O)C(N)=O)NC(=O)[C@H](C(C)C)NC(=O)[C@H](Cc3ccccc3)NC(=O)[C@H](C)NC(=O)[C@H](C)NC(=O)[C@H](CC(=O)O)NC1=O)CCCC=CC[C@]1(CCCN1C(C)=O)C(=O)N[C@@H](CC(=O)O)C(=O)N[C@@H](C)C(=O)N2 (stereo partly drawn) [I-536, Ac-PL3-Asp-Ala-B5-[NHEt]AsnR-Asp-Ala-Ala-Phe-Val-S8-Phe-BztA-Gln-NH2] |  |  | 4470 |  | 23 (≈ 42 µg/mL) | 2.75 |  | 
CC(=O)N1CCC[C@]12CC=CCCCC1(CCCC=CCCCCCC[C@@](C)(C(=O)N[C@@H](Cc3ccccc3)C(=O)N[C@@H](Cc3csc4ccccc34)C(=O)N[C@@H](CCC(N)=O)C(N)=O)NC(=O)[C@H](CC(N)=O)NC(=O)[C@H](Cc3cccs3)NC(=O)[C@H](C)NC(=O)[C@H](C)NC(=O)[C@H](CCC(=O)O)NC(=O)[C@H](CC(=O)O)NC1=O)NC(=O)[C@H](C)NC(=O)[C@H](CC(=O)O)NC2=O (stereo partly drawn) [I-447, Ac-PL3-Asp-Ala-B5-Asp-Glu-Ala-Ala-2Thi-Asn-S8-Phe-BztA-Gln-NH2] | 50 (≈ 91.7 µg/mL) | 1.996 | 74 | 74 |  |  |  | 
CC(=O)N1CCC[C@]12CC=CCCCC1(CCCC=CCCCOC(=O)N3CC[C@@](C(=O)N[C@@H](Cc4ccccc4Cl)C(=O)N[C@@H](Cc4csc5ccccc45)C(=O)N[C@@H](CO)C(N)=O)(C3)NC(=O)[C@H](CC(C)C)NC(=O)[C@H](Cc3ccccc3)NC(=O)[C@H](C)NC(=O)[C@H](C)NC(=O)[C@H](CCC(=O)O)NC(=O)[C@H](CC(=O)O)NC1=O)NC(=O)[C@H](CC(C)(C)C)NC(=O)[C@H](CC(=O)O)NC2=O (stereo partly drawn) [I-1066, Ac-PL3-Asp-Npg-B5-Asp-Glu-Ala-Ala-Phe-Leu-PyrS2-2C1F-BztA-Ser-NH2] | 10 (≈ 19.2 µg/mL) | 2.024 |  |  |  |  | 789 | 789
CC[C@H](C)[C@@H]1NC(=O)[C@H](CC(=O)O)NC(=O)[C@]2(CC=CCCCC3(CCCC=CCCCCCC[C@@](C)(C(=O)N[C@@H](Cc4ccccc4)C(=O)N[C@@H](Cc4csc5ccccc45)C(=O)N[C@@H](CCC(N)=O)C(N)=O)NC(=O)[C@H](CCC(N)=O)NC(=O)[C@H](Cc4ccccc4)NC(=O)[C@H](C)NC(=O)[C@H](C)NC(=O)[C@H](CCC(=O)O)NC(=O)[C@H](CC(=O)O)NC3=O)NC1=O)CCCN2S(C)(=O)=O (stereo partly drawn) [I-710, MeSO2-PL3-Asp-Ile-B5-Asp-Glu-Ala-Ala-Phe-Gln-S8-Phe-BztA-Gln-NH2] | 45 (≈ 86.4 µg/mL) | 2.143 | 73 | 73 |  |  |  | 
CC(=O)N1CCC[C@]12CC=CCCCC1(CCCC=CCCCCCC[C@@](C)(C(=O)N[C@@H](Cc3ccccc3)C(=O)N[C@@H](Cc3csc4ccccc34)C(=O)N[C@@H](CCC(N)=O)C(N)=O)NC(=O)[C@H]([C@@H](C)O)NC(=O)[C@H](Cc3ccccc3)NC(=O)[C@H](C)NC(=O)[C@H](C)NC(=O)[C@H](CCC(=O)O)NC(=O)[C@H](CC(=O)O)NC1=O)NC(=O)[C@H](CC(C)C)NC(=O)[C@H](CC(=O)O)NC2=O (stereo partly drawn) [I-622, Ac-PL3-Asp-Leu-B5-Asp-Glu-Ala-Ala-Phe-Thr-S8-Phe-BztA-Gln-NH2] | 45 (≈ 83.5 µg/mL) | 2.453 | 230 | 230 |  |  |  | 
CC(=O)N1CCC[C@]12CC=CCCCC1(CCCC=CCCCOC(=O)N3CC[C@@](C(=O)N[C@@H](Cc4ccsc4)C(=O)N[C@@H](Cc4csc5ccccc45)C(=O)N[C@@H](CCC(N)=O)C(N)=O)(C3)NC(=O)[C@H](CC(N)=O)NC(=O)[C@H](Cc3ccccc3)NC(=O)[C@H](CCCCNC(=O)CCC34CC5CC(CC(C5)C3)C4)NC(=O)[C@H](C)NC(=O)[C@H](CC(=O)O)NC(=O)[C@H](CC(=O)O)NC1=O)NC(=O)[C@H](CC(C)(C)C)NC(=O)[C@H](CC(=O)O)NC2=O (stereo partly drawn) [I-901, Ac-PL3-Asp-Npg-B5-Asp-Asp-Ala-[AdamantPro]Lys-Phe-Asn-PyrS2-3Thi-BztA-Gln-NH2] |  |  |  |  | 40 (≈ 86.6 µg/mL) | 2.49 | 38 | 
CC(=O)N1CCC[C@]12CC=CCCCC1(CCCC=CCCCCCC[C@@](C)(C(=O)N[C@@H](Cc3ccccc3)C(=O)N[C@@H](Cc3csc4ccccc34)C(=O)N[C@@H](CCC(N)=O)C(N)=O)NC(=O)[C@H](CCC(N)=O)NC(=O)[C@H](Cc3ccccc3)NC(=O)[C@H](C)NC(=O)[C@H](C)NC(=O)[C@H](CCC(=O)O)NC(=O)[C@H](CC(=O)O)NC1=O)NC(=O)[C@H](C(C)C)NC(=O)[C@H](CC(=O)O)NC2=O (stereo partly drawn) [I-410, Ac-PL3-Asp-Val-B5-Asp-Glu-Ala-Ala-Phe-Gln-S8-Phe-BztA-Gln-NH2] | 50 (≈ 93.5 µg/mL) |  | 50 |  |  | 2.26 |  | 
CC[C@H](C)[C@@H]1NC(=O)[C@H](CC(=O)O)NC(=O)[C@]2(CC=CCCCC3(CCCC=CCCCCCC[C@@](C)(C(=O)N[C@@H](Cc4ccccc4)C(=O)N[C@@H](Cc4csc5ccccc45)C(=O)N[C@@H](CCC(N)=O)C(N)=O)NC(=O)[C@H](CCC(N)=O)NC(=O)[C@H](Cc4ccccc4)NC(=O)[C@H](C)NC(=O)[C@H](C)NC(=O)[C@H](CCCNC(=N)N)NC(=O)[C@H](CC(=O)O)NC3=O)NC1=O)CCCN2C(C)=O (stereo partly drawn) [I-614, Ac-PL3-Asp-Ile-B5-Asp-Arg-Ala-Ala-Phe-Gln-S8-Phe-BztA-Gln-NH2] | 10 (≈ 19.1 µg/mL) | 2.801 | 1140 | 1140 |  |  |  | 
